tested on: secretion of TNF-α from LPS-stimulated human monocytes; assay: LPS-induced TNF-alpha production in human THP-1 cell line; type: cell-based; settings: Monocyte, read-out: EC50, inhibition of secretion of TNF-α from LPS-stimulated human monocytes
Experimental: THP-1 (human, monocytic) cell line was purchased from the American Type Culture Collection (ATCC, Cat. No.TIB 202). Cell line was passaged three times per week in RPMI 1640 (GIBCO), supplemented with 10% heat-inactivated fetal bovine serum (FBS; Omega Scientific, Tarzana, Calif.), 2 mM L-glutamine, 100 U/ml penicillin and 100 μg/ml streptomycin (Gibco/Invitrogen, Carlsbad, Calif.) in a humidified incubator with 95% air and 5% CO2 at 37° C.
For the assay THP-1 cells were harvested, counted and suspended at 1E6 cells/ml in culture medium. 200 μl of cell suspension was added to each well at 96 well plates to provide density of 2×10^5 cells per well. Serial dilutions of P38 compounds were prepared at final concentrations in culture medium from a 10 mM stock solution, and assayed in triplicate. Vehicle was prepared by adjusting culture medium to 0.1% v/v DMSO which corresponds to the concentration of DMSO in the wells with test compounds.
Cells were incubated in presence of the P38 inhibitor for 30 min. After that cells were stimulated with LPS (E. coli 026:B6, 1 μg/ml) for 4 hr at 37° C. in a 5% CO2-incubator. Reaction was stopped by placing samples on ice and centrifuging for 10 min at 1500×g at 4° C. Cell supernatants were harvested and concentration of TNF—was determined by ELISA (BD Pharmingen, San Diego, Calif., Cat. No. 555212), following the manufacturer's instruction. Absorbance read and analyzed at 450 nm on a spectrophotometric ELISA plate reader (Labsystems Multiskan MCC/340). Replicate readings were averaged and the results are expressed as a percent of OD signal from control.

Row | SMILES | EC50
1 | CONC(=O)c1ccc(C)c(Nc2nc(NCc3cccc(C)c3)nc(N[C@H](C)C(C)(C)C)n2)c1 [Compound 12] | 122 nM
2 | CONC(=O)c1ccc(C)c(Nc2nc(NCC3CCCC(CN)C3)nc(N[C@H](C)C(C)(C)C)n2)c1 (stereo partly shown) [Compound 9] | 33 nM
3 | CONC(=O)c1ccc(C)c(Nc2nc(NCC3CCCC(CN)C3)nc(NC3CCCCC3C)n2)c1 (stereo not shown) [Compound 10] | 22 nM
4 | CONC(=O)c1ccc(C)c(Nc2nc(NCC3CCCC(CN)C3)nc(NC3CCCCC3)n2)c1 (stereo not shown) [Compound 11] | 11 nM

From patent US8119798B2, “P38 kinase inhibitors” (GlaxoSmithKline LLC, priority 2006, dated 2012)
